Data on 25 compounds can be found in US7829665B2 (priority 2005, dated 2010).

In general, IC50 refers to the concentration that inhibits the measured activity by half. As usually defined, the EC50 is the concentration needed to bring the measured effect to its halfway point.

For assay [1], the target named is T1, full-length NS3/NS4A-2 (HCV NS3 protease) (Hepatitis C virus genotype 1a, UniProt P27958).
T1 construct: Recombinant E. coli or Baculovirus full-length NS3 was diluted to 3.33 μM with assay buffer; made in house; host or cells: E. coli or baculovirus (BV) expression system
Description: NS3-NS4 protease assay / NS3 inhibition assay (RETS1 substrate, fluorescence kinetic read). It is filed as biochemical. A digest of the protocol: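 Ki values come from IC50 fits corrected via Ki=IC50/(1+[S]/Km), with Km 2.03 μM for E. coli and 1.74 μM for baculovirus full-length NS3. Enzyme (2 or 3 nM NS3, respectively, complexed with NS4A-2) sat with compound, top concentration 50 microM, for 10 min at room temperature. Cleavage of RETS1 (8 μM working solution) was then followed by fluorescence (335/495 nm) over 30 min.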

The test system of assay [2] is HCV sub-genomic replicon in GS4.3 cells (HuH-7 hepatoma cells). Description: Quantitation by ELISA of Neomycin phosphotransferase II (NPTII) in the HCV sub-genomic replicon, GS4.3. It is filed as cell-based, hepatitis C virus. The note with it: Hepatitis C virus, Huh-7. The procedure, abridged: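 Replicon-bearing HuH-7 (GS4.3) cells were exposed to compounds for 72 h in G418-free medium, top final concentration 10 μM, 1% DMSO. Lysates went to an NPTII ELISA read at 450 nm. Signal was normalised to DMSO-treated wells and EC50 was derived by four-parameter curve fitting.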
(In general: In an ELISA, binding on a coated surface is turned into a signal by an enzyme label.)

[3] abbreviates: recombinant E. coli or Baculovirus full-length NS3 with NS4A-2, read-out: NS3-NS4 IC50.
The mark [4] stands for this setting: GS4.3 cells, 72 h incubation, NPTII ELISA, read-out: Replicon EC50.

Molecules are shown by their SMILES. Where two headings read alike, the source gives them in different places.

T1 sequence (P27958 1027-1657): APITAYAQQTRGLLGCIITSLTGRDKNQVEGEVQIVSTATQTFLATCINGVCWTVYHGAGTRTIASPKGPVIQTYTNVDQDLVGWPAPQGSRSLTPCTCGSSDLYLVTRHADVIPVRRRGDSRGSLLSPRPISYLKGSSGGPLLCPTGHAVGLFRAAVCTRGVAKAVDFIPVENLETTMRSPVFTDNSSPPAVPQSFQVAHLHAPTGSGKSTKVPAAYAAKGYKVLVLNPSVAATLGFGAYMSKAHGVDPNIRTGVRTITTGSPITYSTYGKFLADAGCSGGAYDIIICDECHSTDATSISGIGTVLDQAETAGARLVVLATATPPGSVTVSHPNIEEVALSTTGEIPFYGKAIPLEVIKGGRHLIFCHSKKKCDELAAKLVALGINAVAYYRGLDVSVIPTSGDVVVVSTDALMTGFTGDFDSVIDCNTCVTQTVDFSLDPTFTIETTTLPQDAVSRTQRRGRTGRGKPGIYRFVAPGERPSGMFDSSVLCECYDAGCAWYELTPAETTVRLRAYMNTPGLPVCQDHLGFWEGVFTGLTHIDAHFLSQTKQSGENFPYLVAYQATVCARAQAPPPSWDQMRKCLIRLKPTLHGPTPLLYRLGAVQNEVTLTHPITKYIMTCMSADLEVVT

`CC(C)(C)OC(=O)N[C@H]1CCCCC/C=C\[C@@H]2C[C@@]2(C(=O)NS(=O)(=O)C2CC2)NC(=O)C2Cc3cc(Oc4cccc(Cl)c4)ccc3CN2C1=O` (stereo partly drawn) [Compound 2007, tert-Butyl (1aS,9S,19aR,Z)-15-(3-chlorophenoxy)-19a-(cyclopropylsulfonylcarbamoyl)-10,18-dioxo-1a,4,5,6,7,8,9,10,12,17,17a,18,19,19a-tetradecahydro-1H-11,14-diaza-bicyclo[13.1.0]hexadeca-1(15), 2-dieno[11,12-b]isoquinolin-9-ylcarbamate]: the IC50 in assay [1] (setting [3]) is below 1000 nM. The EC50 in assay [2] (setting [4]) was below 10000 nM.
In the case of `O=C(Cc1ccccc1)N[C@H]1CCCCC/C=C\[C@@H]2C[C@@]2(C(=O)NS(=O)(=O)C2CC2)NC(=O)C2CCCN2C1=O` (some centres unmarked) [Compound 2144], the IC50 in assay [1] (setting [3]) is above 10000 nM. The EC50 in assay [2] (Table 26, read-out: EC50) is below 1000 nM.
As to `O=C1N[C@]2(C(=O)NS(=O)(=O)C3CC3)C[C@H]2/C=C\CCCCC[C@H](Nc2c(N3CCC3)c(=O)c2=O)C(=O)N2C[C@H](OC(=O)N3CCc4ccccc4C3)C[C@@H]12` [Compound 242], in assay [1] (setting [3]), the IC50 is below 100 nM. Further, the EC50 in assay [2] (setting [4]) is below 10000 nM.
Consider `COCC1(S(=O)(=O)NC(=O)[C@@]23C[C@H]2/C=C\CCCCC[C@H](NC(=O)OC2CCCC2)C(=O)N2C[C@H](OC(=O)N4Cc5cccc(F)c5C4)C[C@H]2C(=O)N3)CC1` [Compound 171], for which the IC50 in assay [1] (setting [3]) is below 100 nM. Further, in assay [2] (setting [4]), the EC50 was below 100 nM.
Regarding `CC(C)(C)OC(=O)N[C@H]1CCC(F)(F)CC/C=C\[C@@H]2C[C@@]2(C(=O)NS(=O)(=O)C2CC2)NC(=O)[C@@H]2C[C@@H](OC(=O)N3Cc4cccc(F)c4C3)CN2C1=O` [Compound 1002], the IC50 in assay [1] (setting [3]) is below 100 nM. In addition, the EC50 in assay [2] (setting [4]) is below 100 nM.
For the compound `O=C1N[C@]2(C(=O)NCC3CC3)C[C@H]2/C=C\CCCCC[C@H](NC2CCC2)C(=O)N2C[C@H](OC(=O)N3Cc4cccc(F)c4C3)C[C@@H]12` [Compound 624], in assay [1] (setting [3]), the IC50 is below 10000 nM. For the same compound, the EC50 in assay [2] (setting [4]) was below 1000 nM.
With `Cc1ccccc1S(=O)(=O)NC(=O)[C@@]12C[C@H]1/C=C\CCCCC[C@H](N)C(=O)N1C[C@H](OC(=O)N3Cc4cccc(F)c4C3)C[C@H]1C(=O)N2` [Compound 159], the IC50 in assay [1] was below 100 nM. For the same compound, in assay [2] (setting [4]), the EC50 is below 1000 nM.
For `N[C@H]1CCCCC/C=C\[C@@H]2C[C@@]2(C(=O)NS(=O)(=O)C2CC2)NC(=O)[C@@H]2C[C@@H](OC(=O)N3Cc4cccc(F)c4C3)CN2C1=O` [Compound 107], the IC50 in assay [1] (setting [3]) is below 100 nM. The EC50 in assay [2] (setting [4]) was below 10000 nM.
On the same counts, the results for `O=C1N[C@]2(C(=O)NS(=O)(=O)C3CC3)C[C@H]2/C=C\CCCCC[C@H](Nc2c(N3CCC3)c(=O)c2=O)C(=O)N2C[C@H](OC(=O)N3Cc4cccc(F)c4C3)C[C@@H]12` [Compound 193] are below 100 nM and below 1000 nM.
The matching figures for `O=C(N[C@H]1CCCCC/C=C\[C@@H]2C[C@@]2(C(=O)O)NC(=O)[C@@H]2C[C@@H](OC(=O)N3Cc4cccc(F)c4C3)CN2C1=O)OC1CCCC1` [Compound 116]: below 100 nM and below 10000 nM.
The matching figures for `O=C(N[C@H]1CCCCC/C=C\[C@@H]2C[C@@]2(C(=O)O)NC(=O)[C@@H]2C[C@@H](OC(=O)N3Cc4ccccc4C3)CN2C1=O)C1CC1` [Compound 123]: below 100 nM and below 10000 nM.
`O=C(N[C@H]1CCCCC/C=C\[C@@H]2C[C@@]2(C(=O)NS(=O)(=O)N2CCC2)NC(=O)[C@@H]2C[C@@H](OC(=O)N3Cc4cccc(F)c4C3)CN2C1=O)OC1CCCC1` [Compound 217]: the IC50 in assay [1] (setting [3]) is below 100 nM. In addition, in assay [2] (setting [4]), the EC50 was below 100 nM.
In the case of `O=C(N[C@H]1CCCCC/C=C\[C@@H]2C[C@@]2(C(=O)NS(=O)(=O)N2CCC(F)(F)C2)NC(=O)C2C[C@@H](OC(=O)N3Cc4ccccc4C3)CN2C1=O)OC1CCCC1` (some centres unmarked) [Compound 227], the IC50 in assay [1] (setting [3]) was below 100 nM. Besides, the EC50 in assay [2] (setting [4]) was below 100 nM.
Turning to `COc1ccc(CC(=O)N[C@H]2CCCCC/C=C\[C@@H]3C[C@@]3(C(=O)NS(=O)(=O)C3CC3)NC(=O)[C@@H]3CCCN3C2=O)cc1` [Compound 2138, (1S,4R,6S,14S)N—((Z)-4-Cyclopropanesulfonylaminocarbonyl-2,15-dioxo-3,16-diaza-tricyclo[14.3.0.0^4,6]nonadec-7-ene-14-yl)-2-(4-methoxy-phenyl)-acetamide], the IC50 in assay [1] (setting [3]) was above 10000 nM. In assay [2] (Table 26, read-out: EC50), the EC50 is below 1000 nM.
With `CC(C)(C)OC(=O)N[C@H]1CCCCC/C=C\[C@@H]2C[C@@]2(C(=O)O)NC(=O)[C@@H]2C[C@@H](OC(=O)N3Cc4cccc(Cl)c4C3)CN2C1=O` [Compound 113], in assay [1] (setting [3]), the IC50 is below 100 nM. In addition, the EC50 in assay [2] (setting [4]) was below 1000 nM.
The matching figures for `CN1CCN(c2ccc3c(c2)CN(C(=O)O[C@@H]2C[C@H]4C(=O)N[C@]5(C(=O)O)C[C@H]5/C=C\CCCCC[C@H](NC(=O)OC(C)(C)C)C(=O)N4C2)C3)CC1` [Compound 175]: below 100 nM and above 10000 nM.
On the same counts, the results for `O=C(N[C@H](C(=O)N[C@H]1CCCCC/C=C\[C@@H]2C[C@@]2(C(=O)NS(=O)(=O)C2CC2)NC(=O)[C@@H]2C[C@@H](OC(=O)N3Cc4cccc(Cl)c4C3)CN2C1=O)C1CCCCC1)c1cnccn1` [Compound 263] are below 100 nM and below 100 nM.
`CC(C)(C)OC(=O)N[C@H]1CCCCC/C=C\[C@@H]2C[C@@]2(C(=O)NC(=O)C2CC2)NC(=O)[C@@H]2C[C@@H](OC(=O)N3Cc4ccccc4C3)CN2C1=O` [Compound 701]: the IC50 in assay [1] (setting [3]) was below 100 nM. Besides, in assay [2] (setting [4]), the EC50 is below 100 nM.
In the case of `CC(NC(=O)[C@@]12C[C@H]1/C=C\CCCCC[C@H](NC(=O)OC(C)(C)C)C(=O)N1C[C@H](OC(=O)N3Cc4cccc(F)c4C3)C[C@H]1C(=O)N2)c1ccncc1` (some centres unmarked) [Compound 618], the IC50 in assay [1] (setting [3]) is below 100 nM. Further, in assay [2] (setting [4]), the EC50 is below 10000 nM.
As to `CC(C)(C)OC(=O)N[C@H]1CCC(F)(F)CC/C=C\[C@@H]2C[C@@]2(C(=O)NS(=O)(=O)C2CC2)NC(=O)[C@@H]2C[C@@H](OC(=O)N3Cc4ccccc4C3)CN2C1=O` [Compound 1009], the IC50 in assay [1] (setting [3]) was below 100 nM. For the same compound, in assay [2] (setting [4]), the EC50 was below 100 nM.
As to `O=C(N[C@H]1CCCCC/C=C\[C@@H]2C[C@@]2(C(=O)O)NC(=O)[C@@H]2C[C@@H](OC(=O)N3Cc4cccc(F)c4C3)CN2C1=O)C1CCC1` [Compound 122], in assay [1] (setting [3]), the IC50 was below 100 nM. Also, in assay [2] (setting [4]), the EC50 is below 10000 nM.
On the same counts, the results for `Cc1sc(N[C@H]2CCCCC/C=C\[C@@H]3C[C@@]3(C(=O)NS(=O)(=O)C3CC3)NC(=O)[C@@H]3C[C@@H](OC(=O)N4Cc5cccc(F)c5C4)CN3C2=O)nc1-c1ccccc1` [Compound 928] are below 100 nM and below 100 nM.
`CN(C)S(=O)(=O)NC(=O)[C@@]12C[C@H]1/C=C\CCCCC[C@H](NC(=O)OC(C)(C)C)C(=O)N1C[C@H](OC(=O)N3Cc4cccc(Cl)c4C3)C[C@H]1C(=O)N2` [Compound 114]: the IC50 in assay [1] (setting [3]) is below 100 nM. Further, the 50% effective concentration (EC50) in assay [2] (setting [4]) was below 100 nM.
As for `CC(C)(C)OC(=O)N[C@H]1CCCCC/C=C\[C@@H]2C[C@@]2(C(=O)NS(=O)(=O)c2cc(Cl)sc2Cl)NC(=O)[C@@H]2C[C@@H](OC(=O)N3Cc4cccc(F)c4C3)CN2C1=O` [Compound 162], the IC50 in assay [1] (setting [3]) was below 100 nM. The EC50 in assay [2] (setting [4]) was below 100 nM.
As for `O=C(N[C@H]1CCCCC/C=C\[C@@H]2C[C@@]2(C(=O)NS(=O)(=O)N2CC(F)(F)C2)NC(=O)C2C[C@@H](OC(=O)N3Cc4ccccc4C3)CN2C1=O)OC1CCCC1` (some centres unmarked) [Compound 230], in assay [1] (setting [3]), the IC50 was below 100 nM. The EC50 in assay [2] (setting [4]) is below 1000 nM.
